Experiments:
Assay type in all cases: biochemical
[1] = system: Rhizopus chinensis lipase r27RCL; experiment: Ester synthesis activity of surfactant-treated lyophilized lipase r27RCL by GC analysis; conditions: surfactant 10 mM, protein 0.2 mg·mL^−1
Experimental: (§1) (2) Determination of Ester Synthesis Activity of the Lipase by GC Analysis
(§2) Substrate solution A: 48.5 mL of n-octanoic acid is dissolved in 250 mL of n-heptane in a volumetric flask.
(§3) Substrate solution B: 17.5 mL of absolute ethanol is dissolved in 250 mL of n-heptane in a volumetric flask.
(§4) Internal standard: 2-hexanol/n-heptane (35 g·L^−1).
(§5) Standard sample: 10 g of n-octanoate is dissolved in 1000 mL of n-heptane in a volumetric flask.
(§6) 1 mL substrate solution A and substrate solution B are added in a 5 mL Eppendorf tube respectively, then 20 mg lipase powder (or lyophilized powder) is added. The reaction is carried out at 40° C. and with shaking at 150 rpm for 30 min. Remove the lipase powder by centrifugation or membrane filtration. Then 0.1 mL of internal standard is added in 0.4 mL of filtrate or supernatant and mixed. Measure the content of n-octanoate in the mixture above by GC analysis.
(§7) The gas chromatograph (6820, Agilent Instruments) is equipped with a AC20 (PEG20000) capillary column and a FID detector. Nitrogen was used as the carrier gas. The oven temperature was programmed to start at 90° C. for 1 min and then be elevated to 200° C. for 5 min at 10° C.·min^−1. The injector and detector temperatures were set at 250° C.
(§8) Definition of enzyme activity: One unit of ester synthesis activity is defined as the amount of enzyme that esterifies 1 micromole of n-octanoate per min.
(§9) Specific activity: the activity of lipase per milligram of total protein in the lipase preparation.
(§10) Total recovery: the percentage of the activity after a treatment to that before the treatment
(§11) Add an equal volume of high-concentration surfactant solution into the enzyme solution. The final protein concentration was […] and the surfactant concentration was 10 mM. After mixed thoroughly, the mixture was lyophilized and kept in dry condition.
(§12) Commercial lipase r27RCL was purchased from Jiangsu Yiming Biological Technology Co., Ltd, which has high hydrolytic activity and low ester synthesis activity. Dissolve the r27RCL powder in water and centrifuge to obtain the supernatant containing the r27RCL lipase to adjust the ester synthesis activity (the final protein concentration was 0.2 mg·mL^−1 and the final concentration of surfactant was 10 mM, which is between 0.1×CMC^˜200×CMC of the different surfactants in Table 1).
(§13) Commercial lipase r27RCL was purchased from Jiangsu Yiming Biological Technology Co., Ltd. r27RCL is a lipase with high hydrolytic activity but low ester synthesis activity. Dissolve the r27RCL powder in water, centrifuge to obtain the supernatant and treat the supernatant with different concentrations of surfactant LPC14 (the final protein concentration was 0.2 mg·mL^−1).

[2] = system: Rhizopus chinensis lipase r27RCL; experiment: Hydrolytic activity of surfactant-treated lipase r27RCL using pNPP as substrate; conditions: surfactant 10 mM, protein 0.2 mg·mL^−1
Description: (§14) (1) Determination of Hydrolytic Activity of the Lipase Using p-Nitrophenyl Palmitate (pNPP) as Substrate
(§15) Hydrolysis of pNPP catalyzed by lipase generates p-nitrophenol and palmitic acid. p-nitrophenol appears yellow in the buffer at pH 8.0 with the maximum absorption peak at 410 nm. Determination of hydrolytic activity can be achieved by measuring the absorbance at 410 nm.
(§16) The substrate solution A: 50 mmol·L^−1 sodium phosphate buffer (pH 8.0) containing 1.16 g·L^−1 sodium deoxycholate and 0.56 g·L^−1 arabic gum. Substrate solution B: 0.015 g pNPP is dissolved in 5 mL isopropyl alcohol. Substrate solution A and substrate solution B are mixed then stored for use afterwards.
(§17) Termination solution: 40 g·L^−1 NaOH, 93.05 g·L^−1 EDTA sodium. Add 62 uL termination solution to the reaction mixture when stopping the reaction.
(§18) Add 0.1 mL appropriately diluted enzyme solution, which is substituted by inactivated enzyme solution as the control, to 2.4 mL substrate solution above, incubate the mixture at 40° C. for 2 min and measure the absorbance at 410 nm.
(§19) one hydrolytic activity unit is defined as the amount of enzyme that catalyzes the formation of 1 μmol of p-nitrophenol in 1 minute at 40° C.
(§20) enzyme activity (U·mL^−1)=(V×A410×10^6)/(ε×t×V′) Calculation equation: […]
(§21) Specific activity: the activity of lipase per milligram of total protein in the lipase preparation. […]
as §12, §13

[3] = molecular target: T1, Rhizoupus oryzae lipase ROL (Rhizopus oryzae, UniProt P61872); experiment: Ester synthesis activity of surfactant-treated lyophilized lipase ROL by GC analysis; conditions: surfactant 10 mM, protein 0.2 mg·mL^−1
T1 construct: purchased Sigma-Aldrich Co., Ltd
Experimental: as §1, §2, §3, §4, §5, §6, §7, §8, §9, §10, §11
(§22) Commercial lipase ROL was purchased from Sigma-Aldrich Co., Ltd. ROL is a non-immobilized lipase. Dissolve the ROL powder in water and centrifuge to obtain the supernatant containing the ROL lipase that would be regulated to improve its ester synthesis activity by adjusting the final protein concentration to 0.2 mg·mL^−1 and adding surfactants to the final concentration of 10 mM.
(§23) Commercial lipase ROL was purchased from Sigma-Aldrich Co., Ltd. and is a non-immobilized lipase. Dissolve the ROL powder in water, centrifuge to obtain the supernatant and treat the supernatant with different concentrations of surfactant LPC14 (the final protein concentration was 0.2 mg·mL^−1).

[4] = molecular target: T1, Rhizoupus oryzae lipase ROL; experiment: Hydrolytic activity of surfactant-treated lipase ROL using pNPP as substrate; conditions: surfactant 10 mM, protein 0.2 mg·mL^−1
Description: as §14, §15, §16, §17, §18, §19, §20, §21, §22, §23

[5] = molecular target: T2, Pseudomonas cepacia lipase PCL (Burkholderia cepacia, UniProt P22088); experiment: Ester synthesis activity of surfactant-treated lyophilized lipase PCL by GC analysis; conditions: surfactant 10 mM, protein 0.2 mg·mL^−1
T2 construct: purchased Sigma-Aldrich Co., Ltd
Experimental: as §1, §2, §3, §4, §5, §6, §7, §8, §9, §10, §11
(§24) Commercial lipase PCL was purchased from Sigma-Aldrich Co., Ltd. PCL is a non-immobilized lipase. Dissolve the PCL powder in water and centrifuge to obtain the supernatant containing the PCL lipase that would be regulated to improve the ester synthesis activity by adjusting the final protein concentration to 0.2 mg·mL^−1 and adding surfactants to the final concentration of 10 mM.
(§25) Commercial lipase PCL was purchased from Sigma-Aldrich Co., Ltd. and is a non-immobilized lipase. Dissolve the PCL powder in water, centrifuge to obtain the supernatant and treat the supernatant with different concentrations of surfactant DDM (the final protein concentration was 0.2 mg·mL^−1).

[6] = molecular target: T2, Pseudomonas cepacia lipase PCL; experiment: Hydrolytic activity of surfactant-treated lipase PCL using pNPP as substrate; conditions: surfactant 10 mM, protein 0.2 mg·mL^−1
Description: as §14, §15, §16, §17, §18, §19, §20, §21, §24, §25

[7] = molecular target: T3, Candida antarctica lipase CALB (Moesziomyces antarcticus, UniProt P41365); experiment: Ester synthesis activity of surfactant-treated lyophilized lipase CALB by GC analysis; conditions: surfactant 10 mM, protein 0.12 mg·mL^−1
T3 construct: purchased Sigma-Aldrich Co., Ltd
Experimental: as §1, §2, §3, §4, §5, §6, §7, §8, §9, §10, §11
(§26) Commercial lipase CALB was purchased from Sigma-Aldrich Co., Ltd. CALB is a non-immobilized lipase. Dissolve the CALB powder in water and centrifuge to obtain the supernatant containing the CALB lipase that would be regulated to improve the ester synthesis activity by adjusting the final protein concentration to 0.12 mg·mL^−1 and adding surfactants to the final concentration of 10 mM.
(§27) Commercial lipase CALB was purchased from Sigma-Aldrich Co., Ltd. and is a non-immobilized lipase. Dissolve the CALB powder in water, centrifuge to obtain the supernatant and treat the supernatant with different concentrations of surfactant DDM (the final protein concentration was 0.12 mg·mL^−1).

[8] = molecular target: T3, Candida antarctica lipase CALB; experiment: Hydrolytic activity of surfactant-treated lipase CALB using pNPP as substrate; conditions: surfactant 10 mM, protein 0.12 mg·mL^−1
Description: as §14, §15, §16, §17, §18, §19, §20, §21, §26, §27

T2 sequence (P22088 45-364): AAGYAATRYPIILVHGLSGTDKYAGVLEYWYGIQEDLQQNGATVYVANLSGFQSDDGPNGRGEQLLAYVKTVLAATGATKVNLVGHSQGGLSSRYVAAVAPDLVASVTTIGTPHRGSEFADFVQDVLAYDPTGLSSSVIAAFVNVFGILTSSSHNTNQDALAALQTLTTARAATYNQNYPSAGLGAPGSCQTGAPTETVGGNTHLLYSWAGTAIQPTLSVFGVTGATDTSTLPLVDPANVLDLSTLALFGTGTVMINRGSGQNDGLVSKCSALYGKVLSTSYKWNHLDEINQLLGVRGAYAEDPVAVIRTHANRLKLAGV
T1 sequence (P61872 96-392): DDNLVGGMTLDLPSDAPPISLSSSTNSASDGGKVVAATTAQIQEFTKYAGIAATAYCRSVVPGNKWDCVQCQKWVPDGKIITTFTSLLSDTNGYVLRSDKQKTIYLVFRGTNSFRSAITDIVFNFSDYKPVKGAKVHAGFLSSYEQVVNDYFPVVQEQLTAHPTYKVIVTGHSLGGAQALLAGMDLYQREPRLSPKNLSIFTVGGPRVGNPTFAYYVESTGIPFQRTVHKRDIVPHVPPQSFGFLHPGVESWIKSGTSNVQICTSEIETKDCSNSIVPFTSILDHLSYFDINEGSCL
T3 sequence (P41365 26-342): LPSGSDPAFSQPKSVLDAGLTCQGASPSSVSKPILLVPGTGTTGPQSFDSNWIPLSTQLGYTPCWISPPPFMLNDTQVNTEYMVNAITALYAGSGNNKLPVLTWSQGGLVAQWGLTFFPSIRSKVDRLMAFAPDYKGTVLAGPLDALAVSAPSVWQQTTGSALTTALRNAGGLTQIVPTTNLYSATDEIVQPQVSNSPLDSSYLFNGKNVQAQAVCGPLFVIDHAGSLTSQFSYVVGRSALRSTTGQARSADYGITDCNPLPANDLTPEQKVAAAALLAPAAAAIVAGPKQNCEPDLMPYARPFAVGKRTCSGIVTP

Row | Compound | Ester synthesis activity, Specific activity [1] [U · mg^−1] | Ester synthesis activity, Total recovery [1] [%] | Hydrolytic activity, Specific activity [2] [U · mg^−1] | Hydrolytic activity, Total recovery [2] [%] | Ester synthesis activity, Specific activity [3] [U · mg^−1] | Ester synthesis activity, Total recovery [3] [%] | Hydrolytic activity, Specific activity [4] [U · mg^−1] | Hydrolytic activity, Total recovery [4] [%] | Ester synthesis activity, Specific activity [5] [U · mg^−1] | Ester synthesis activity, Total recovery [5] [%] | Hydrolytic activity, Specific activity [6] [U · mg^−1] | Hydrolytic activity, Total recovery [6] [%] | Ester synthesis activity, Specific activity [7] [U · mg^−1] | Hydrolytic activity, Specific activity [8] [U · mg^−1] | Hydrolytic activity, Total recovery [8] [%] | Ester synthesis activity, Total recovery [7] [%]
1 | polyethylene glycol octylphenyl Ether [Triton X-100] | 12.9 | 192 | 116.6 | 93 | 1.7 | 200 | 34.9 | 99 | 6.3 | 174 | 364.5 | 131 | 77.4 | 0 | 0 | –
2 | C[C@H](CCC(=O)NCCC[N+](C)(C)CCCS(=O)(=O)[O-])[C@H]1CC[C@H]2[C@@H]3[C@H](O)C[C@@H]4C[C@H](O)CC[C@]4(C)[C@H]3C[C@H](O)[C@]12C [CHAPS, 3-[(3-Cholamidopropyl)dimethylammonio]-1-propanesulfonate] | 13.0 | 105 | 132.6 | 109 | 2.6 | – | 23.6 | 81 | 4.7 | 130 | 248.0 | 101 | 5.9 | 1.6 | 92 | 44
3 | CCCCCCCCCCCCCCCC[N+](C)(C)C.[Br-] [CTAB, hexadecyl trimethyl ammonium bromide] | 0 | 0 | 0 | 0 | 0 | 0 | 0 | 0 | 0 | 0 | 75.5 | 29 | 36.6 | 0 | 0 | 300

Reference: US20190185829A1, “Preparation of lipase with improved ester synthesis activity by using surfactants” (Jiangnan University, priority 2017, published 2019)
